Laboratory results as given in patent US20030199671A1, “Binding molecules for Fc-region polypeptides” (priority 2001, published 2003).
Positions of bridges follow the written chain, without caps; N, C: chain ends. Residues, ends and D or L forms follow the SMILES beside them.

Experiments:
human plasma IgG1 = target: T1, human plasma IgG1 (Homo sapiens, UniProt P01857); experiment: Fluorescence anisotropy binding, fluorescein-labeled peptide
T1 construct: the individual human plasma IgG isoforms: IgG1, IgG2, IgG3, or IgG4; purchased Calbiochem; host or cells: human plasma
Method: (§1) All measurements were performed in 384 well microplates with 20 nM fluorescein-labeled peptide and various concentrations of the IgG isoform in a volume of between 10 and 20 μl using a Tecan Polarion fluorescence polarization plate reader. All binding buffers included 0.01% (v/v) Tween 20 to prevent peptide adsorption to the microplate. The binding mixture was equilibrated for 10 minutes in the microplate at 30° C. prior to performing the measurement.
(§2) Peptides were synthesized, fluorescein-labeled and HPLC purified as described above. Binding studies were performed using either a mixture of human plasma IgG isoforms (the Fc protein) or the individual human plasma IgG isoforms: IgG1, IgG2, IgG3, or IgG4.
(§3) Measurements were performed in 384-well microplates with 2 nM fluorescein-labeled peptide and a varied concentration of the IgG isoform target in a volume of 10 μl using a Tecan Polarion fluorescence polarization plate reader. The Fc binding buffer was 50 mM Tris-HCl, 200 mM NaCl, pH 8.0, 0.01% Tween 20. The IgG binding buffer was PBS with 0.01% Tween 20. The binding mixtures were equilibrated for 10 minutes in the microplate at 30° C. prior to performing the measurements.

human plasma IgG2 = target: T2, human plasma IgG2 (Homo sapiens, UniProt P01859); experiment: as above
T2 construct: the individual human plasma IgG isoforms: IgG1, IgG2, IgG3, or IgG4; purchased Calbiochem; host or cells: human plasma
Method: as §1, §2, §3

human IgG = experiment: Static (filterplate) binding capacity
[1] = target: Fc (mixture of human plasma IgG isoforms); experiment: Fluorescence anisotropy binding, fluorescein-labeled peptide; conditions: pH 8.0, 0.05 M Tris-HCl, 0.2 M NaCl
Summary of the method: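 Fluorescence anisotropy with fluorescein-labeled peptide (20 nM or 2 nM) titrated with human plasma IgG isoform or mixed-IgG Fc target. Fc buffer 50 mM Tris-HCl, 200 mM NaCl, pH 8.0, 0.01% Tween 20; IgG buffer PBS, 0.01% Tween 20. Equilibrated 10 minutes at 30° C before polarization read.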

[2] = pH 9.3, 0.01 M sodium bicarbonate
[3] = pH 9.3, .01 M sodium bicarbonate, 0.2 M NaCl

T1 sequence (P01857 1-330 isoform P01857-1): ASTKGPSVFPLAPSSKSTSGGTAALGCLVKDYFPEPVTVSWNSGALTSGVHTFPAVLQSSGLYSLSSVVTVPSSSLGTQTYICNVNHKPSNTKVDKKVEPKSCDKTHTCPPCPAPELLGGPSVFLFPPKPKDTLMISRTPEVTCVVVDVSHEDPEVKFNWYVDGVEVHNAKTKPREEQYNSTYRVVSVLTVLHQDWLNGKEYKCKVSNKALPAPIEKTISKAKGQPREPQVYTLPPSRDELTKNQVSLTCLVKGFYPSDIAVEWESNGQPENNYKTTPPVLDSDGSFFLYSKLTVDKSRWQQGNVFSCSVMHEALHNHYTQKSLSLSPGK
T2 sequence (P01859 1-326 isoform P01859-1): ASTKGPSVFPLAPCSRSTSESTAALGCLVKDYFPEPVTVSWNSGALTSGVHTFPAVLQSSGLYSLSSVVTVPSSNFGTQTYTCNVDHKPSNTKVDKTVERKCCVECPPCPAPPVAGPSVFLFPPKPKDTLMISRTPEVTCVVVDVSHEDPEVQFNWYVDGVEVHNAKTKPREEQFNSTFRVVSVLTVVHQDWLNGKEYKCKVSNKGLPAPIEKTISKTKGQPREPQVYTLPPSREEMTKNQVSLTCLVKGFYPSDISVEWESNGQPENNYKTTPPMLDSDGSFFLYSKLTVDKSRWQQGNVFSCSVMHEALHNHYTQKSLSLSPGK

| Compound | Effect of including 15% ethylene glycol on binding to IgG1 (human plasma IgG1; 15% ethylene glycol) | Kd (human plasma IgG1; pH 5.7, 0.01 M Tris-acetate, 0 M NaCl) | Kd (human plasma IgG1; pH 5.7, 0.01 M Tris-acetate, […] NaCl) | Kd (human plasma IgG1; pH 7.4, 0.01 M Tris-HCl) | Kd (human plasma IgG1; pH 7.4, PBS, […] NaCl) | Kd (human plasma IgG1; pH 7.4 PBS, […] NaCl, 15% EG) | Kd (human plasma IgG1; [2]) | Kd (human plasma IgG1; [3]) | Kd (human plasma IgG2; pH 7.4, PBS, […] NaCl) | Kd (human plasma IgG2; [2]) | Capacity (mg IgG/mL resin) Static (human IgG; Ligand Density 0.19 μM/mL) | Capacity (mg IgG/mL resin) Static (human IgG; Ligand Density 0.86 μM/mL) | Capacity (mg IgG/mL resin) Static (human IgG; Ligand Density 1.63 μM/mL) | Capacity (mg IgG/mL resin) Static (human IgG; Ligand Density 3.20 μM/mL) | Static Cap. (human IgG; Table 18, 25 mg human IgG applied per ml resin, average ligand density 1.9 μmole/ml) | Kd [1] | Kd (human plasma IgG2; pH 5.7, 0.01 M Tris-acetate) | Kd (human plasma IgG2; pH 7.4, 0.01 M Tris-HCl) | Capacity (mg IgG/mL resin) Static (human IgG; Ligand Density not determined) |
| --- | --- | --- | --- | --- | --- | --- | --- | --- | --- | --- | --- | --- | --- | --- | --- | --- | --- | --- | --- |
| CC[C@H](C)[C@@H]1NC(=O)[C@H](CC(C)C)NC(=O)[C@H](CCC(=O)O)NC(=O)CNC(=O)[C@H](Cc2c[nH]c3ccccc23)NC(=O)[C@H]([C@@H](C)O)NC(=O)[C@H]([C@@H](C)O)NC(=O)[C@H](Cc2ccc(O)cc2)NC(=O)[C@H](C(C)C)NC(=O)[C@@H](NC(=O)[C@H](CCSC)NC(=O)[C@H](Cc2c[nH]cn2)NC(=O)[C@H](CC(=O)O)NC(=O)[C@H](CC(=O)O)NC(=O)CNC(C)=O)CSSC[C@@H](C(=O)N[C@@H](CC(=O)O)C(=O)N[C@@H](CC(N)=O)C(=O)N[C@@H](Cc2c[nH]cn2)C(=O)N[C@@H](CCC(=O)O)C(=O)N2CCC[C@H]2C(=O)NCC(=O)N2CCC[C@H]2C(=O)N[C@@H](CCC(=O)O)C(=O)NCC(=O)NCC(=O)NCC(=O)N[C@@H](CCCCN)C(N)=O)NC(=O)[C@H](Cc2c[nH]c3ccccc23)NC1=O [DX249] (Ac-GDDHMCVYTTWGELIWCDNHEPGPEGGGK-NH2; disulfide 6-17) | no observed effect | 0.074 ± 0.053 µM | 0.84 ± 0.7 µM | 0.4 ± 0.06 µM | 2.9 ± 0.9 µM | 3.6 ± 2.5 µM | > 10 µM | > 10 µM | 1.1 ± 0.3 µM | > 10 µM | 1.2 mg IgG/mL resin | 9.5 mg IgG/mL resin | 15.4 mg IgG/mL resin | 19.0 mg IgG/mL resin | 24 mg/mL | 2.5 ± 0.5 µM | – | – | – |
| CC(=O)NCC(=O)N[C@@H](CC(=O)O)C(=O)N[C@@H](CC(=O)O)C(=O)N[C@@H](CC(=O)O)C(=O)N[C@@H](Cc1c[nH]cn1)C(=O)N[C@H]1CSSC[C@@H](C(=O)N2CCC[C@H]2C(=O)N[C@@H](Cc2c[nH]cn2)C(=O)NCC(=O)N[C@@H](CCC(=O)O)C(=O)N2CCC[C@H]2C(=O)NCC(=O)N2CCC[C@H]2C(=O)N[C@@H](CCC(=O)O)C(=O)NCC(=O)NCC(=O)NCC(=O)N[C@@H](CCCCN)C(N)=O)NC(=O)[C@H](CCC(=O)O)NC(=O)[C@H](CO)NC(=O)[C@H](CC(N)=O)NC(=O)[C@H](Cc2ccccc2)NC(=O)[C@H](Cc2c[nH]c3ccccc23)NC(=O)[C@H](CCC(=O)O)NC(=O)[C@H](CCCNC(=N)N)NC(=O)[C@H](Cc2ccccc2)NC(=O)[C@H](Cc2c[nH]c3ccccc23)NC(=O)[C@H](Cc2ccc(O)cc2)NC1=O [DX252] (Ac-GDDDHCYWFREWFNSECPHGEPGPEGGGK-NH2; disulfide 6-17 (inferred)) | – | – | – | 2.1 to 3.4 µM | 2.9 ± 1.6 µM | – | > 10 µM | > 10 µM | – | > 10 µM | – | – | – | – | – | 5.1 ± 3 µM | > 1 µM | 2.1 to 3.4 µM | – |
| Prot. A: immobilized recombinant Protein A (RepliGen Corp., product no. IPA-400), positive control [reference compound] | – | – | – | – | – | – | – | – | – | – | – | – | – | – | – | – | – | – | 11.1 mg IgG/mL resin |
